Measurements taken from patent US8586579B2, “Anellated pyridine compounds” (Hoffmann-La Roche Inc., priority 2010, dated 2013).
Where two headings read alike, the source gives them in different places.

Key:
[1] = target: human D2 receptor (Homo sapiens (Human), UniProt P14416); experiment: Radioligand binding assay, [3H]-spiperone, human D2 receptor; settings: membranes of HEK293 EBNA cells expressing human D2; 0.7 nM [3H]-spiperone
How it was run: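 Competition binding used ~0.7 nM [3H]-spiperone, 1 h at room temperature, pH 7.4 Tris/salt buffer, on transiently transfected HEK293 EBNA membranes bearing human D2.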

[2] = target: human D3 receptor (Homo sapiens (Human), UniProt P35462); experiment: Radioligand binding assay, [3H]-spiperone, human D3 receptor; settings: membranes of HEK293 EBNA cells expressing human D3; 0.5 nM [3H]-spiperone
How it was run: (§1)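 Incubation was 1 h at RT, using 1.1 nM [3H]-ketanserin at 5-HT2A or 0.5 nM [3H]-spiperone at D3, on membranes of transiently transfected HEK293 EBNA cells. Nonspecific binding was set with 10 μM unlabelled spiperone.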

[3] = target: human 5-HT2A receptor (Homo sapiens (Human), UniProt P28223); experiment: Radioligand binding assay, [3H]-ketanserin, human 5-HT2A receptor
How it was run: as §1

[4] = membranes of HEK293 EBNA cells expressing human 5-HT2A, 1.1 nM [3H]-ketanserin

Sequence of human D3 receptor (P35462 whole entry): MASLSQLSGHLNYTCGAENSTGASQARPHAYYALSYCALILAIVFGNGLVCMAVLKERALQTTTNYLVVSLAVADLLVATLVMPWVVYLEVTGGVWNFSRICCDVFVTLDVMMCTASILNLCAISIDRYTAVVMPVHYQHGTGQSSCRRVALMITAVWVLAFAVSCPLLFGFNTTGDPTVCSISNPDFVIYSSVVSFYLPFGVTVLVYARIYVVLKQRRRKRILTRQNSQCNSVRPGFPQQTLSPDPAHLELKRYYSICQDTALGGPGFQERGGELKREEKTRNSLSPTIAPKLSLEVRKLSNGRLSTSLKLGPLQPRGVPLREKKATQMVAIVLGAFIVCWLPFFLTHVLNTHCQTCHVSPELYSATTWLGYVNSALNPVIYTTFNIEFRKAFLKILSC
Sequence of human D2 receptor (P14416 whole entry): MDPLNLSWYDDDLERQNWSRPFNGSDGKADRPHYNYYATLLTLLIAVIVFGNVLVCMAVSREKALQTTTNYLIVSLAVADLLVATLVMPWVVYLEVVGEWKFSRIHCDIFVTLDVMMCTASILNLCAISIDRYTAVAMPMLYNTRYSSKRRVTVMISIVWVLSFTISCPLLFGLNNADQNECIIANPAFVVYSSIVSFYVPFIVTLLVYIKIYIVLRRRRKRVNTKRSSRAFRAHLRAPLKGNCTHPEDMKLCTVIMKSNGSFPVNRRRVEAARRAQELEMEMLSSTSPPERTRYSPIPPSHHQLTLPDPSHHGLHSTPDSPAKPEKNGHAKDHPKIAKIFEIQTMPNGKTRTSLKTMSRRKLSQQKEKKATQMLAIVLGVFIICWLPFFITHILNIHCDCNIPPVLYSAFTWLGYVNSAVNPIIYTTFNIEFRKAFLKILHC
Sequence of human 5-HT2A receptor (P28223 whole entry): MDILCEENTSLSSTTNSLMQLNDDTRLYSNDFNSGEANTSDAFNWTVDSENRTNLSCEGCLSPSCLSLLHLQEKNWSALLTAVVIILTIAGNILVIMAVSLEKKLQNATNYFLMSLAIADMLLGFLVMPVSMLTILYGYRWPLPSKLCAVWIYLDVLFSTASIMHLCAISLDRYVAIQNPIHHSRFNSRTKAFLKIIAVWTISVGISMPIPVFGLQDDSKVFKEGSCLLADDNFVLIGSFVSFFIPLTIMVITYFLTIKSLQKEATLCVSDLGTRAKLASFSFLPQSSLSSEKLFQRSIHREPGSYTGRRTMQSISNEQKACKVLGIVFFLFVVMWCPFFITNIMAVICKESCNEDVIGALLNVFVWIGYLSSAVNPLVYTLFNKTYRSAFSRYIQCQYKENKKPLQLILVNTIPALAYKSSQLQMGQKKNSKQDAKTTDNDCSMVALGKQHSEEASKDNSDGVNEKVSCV

## O=C(N[C@H]1CC[C@H](CCN2CCN(c3nccc4c3CCO4)CC2)CC1)c1ccc(N2CCOCC2)nc1 [Example 119, trans-N-(4-{2-[4-(2,3-Dihydro-furo[3,2-c]pyridin-4-yl)-piperazin-1-yl]-ethyl}-cyclohexyl)-6-morpholin-4-yl-nicotinamide]
[1]
  Ki: 998 nM
[2]
  Ki: 44.7 nM
[3]
  Ki: 15.6 nM
other
  melting point: 222 °C

## O=C(CC1CCC1)N[C@H]1CC[C@H](CCN2CCN(c3nccc4c3CCO4)CC2)CC1 [Example 73, trans-2-Cyclobutyl-N-(4-{2-[4-(2,3-dihydro-furo[3,2-c]pyridin-4-yl)-piperazin-1-yl]-ethyl}-cyclohexyl)-acetamide]
[1]
  Ki: 603 nM
[2]
  Ki: 8.92 nM
[3]; [4]
  Ki: 13.3 nM
other
  melting point: 193 °C

## COCCC(=O)N[C@H]1CC[C@H](CCN2CCN(c3nc(C)cc4occc34)CC2)CC1 [Example 99, trans-3-Methoxy-N-(4-{2-[4-(6-methyl-furo[3,2-c]pyridin-4-yl)-piperazin-1-yl]-ethyl}-cyclohexyl)-propionamide]
[1]
  Ki: 430 nM
[2]
  Ki: 4.8 nM
[3]; [4]
  Ki: 86.9 nM
other
  melting point: 158 °C

## Cc1cc2c(c(N3CCN(CC[C@H]4CC[C@H](NC(=O)CC5CCOCC5)CC4)CC3)n1)CCO2 [Example 102, trans-N-(4-{2-[4-(6-Methyl-2,3-dihydro-furo[3,2-c]pyridin-4-yl)-piperazin-1-yl]-ethyl}-cyclohexyl)-2-(tetrahydro-pyran-4-yl)-acetamide]
[1]
  Ki: 1940 nM
[2]
  Ki: 18.7 nM
[3]; [4]
  Ki: 193 nM
other
  melting point: 218.5 °C

## Cc1cnc(N2CCN(CC[C@H]3CC[C@H](NC(=O)C4CCOCC4)CC3)CC2)c2c1OCC2 [Example 109, Tetrahydro-pyran-4-carboxylic acid trans-(4-{2-[4-(7-methyl-2,3-dihydro-furo[3,2-c]pyridin-4-yl)-piperazin-1-yl]-ethyl}-cyclohexyl)-amide]
[1]
  Ki: 4510 nM
[2]
  Ki: 98.7 nM
[3]; [4]
  Ki: 19.7 nM
other
  melting point: 223.5 °C

## CO[C@H]1CC[C@H](CC(=O)N[C@H]2CC[C@H](CCN3CCN(c4nccc5c4CCO5)CC3)CC2)CC1 [Example 65, trans-N-(4-{2-[4-(2,3-Dihydro-furo[3,2-c]pyridin-4-yl)-piperazin-1-yl]-ethyl}-cyclohexyl)-2-trans-(4-methoxy-cyclohexyl)-acetamide]
[1]
  Ki: 2450 nM
[2]
  Ki: 24.1 nM
[3]; [4]
  Ki: 14.9 nM
other
  melting point: 192.5 °C

## CC(=O)N[C@H]1CC[C@H](CCN2CCN(c3ncc(C)c4occc34)CC2)CC1 [Example 104, trans-N-(4-{2-[4-(7-Methyl-furo[3,2-c]pyridin-4-yl)-piperazin-1-yl]-ethyl}-cyclohexyl)-acetamide]
[1]
  Ki: 1460 nM
[2]
  Ki: 21.5 nM
[3]; [4]
  Ki: 13.7 nM
other
  melting point: 208 °C

## CC(C)(C)Oc1ccc(C(=O)N[C@H]2CC[C@H](CCN3CCN(c4nccc5c4CCO5)CC3)CC2)cc1 [Example 136, trans-4-tert-Butoxy-N-(4-{2-[4-(2,3-dihydro-furo[3,2-c]pyridin-4-yl)-piperazin-1-yl]-ethyl}-cyclohexyl)-benzamide]
[1]
  Ki: 3160 nM
[2]
  Ki: 69.5 nM
[3]; [4]
  Ki: 41.4 nM
other
  melting point: 200 °C

## O=C(N[C@H]1CC[C@H](CCN2CCN(c3nccc4c3CCO4)CC2)CC1)c1ccc(N2CCS(=O)(=O)CC2)cc1 [Example 125, trans-N-(4-{2-[4-(2,3-Dihydro-furo[3,2-c]pyridin-4-yl)-piperazin-1-yl]-ethyl}-cyclohexyl)-4-(1,1-dioxo-1λ6-thiomorpholin-4-yl)-benzamide]
[1]
  Ki: 117 nM
[2]
  Ki: 14.4 nM
[3]; [4]
  Ki: 16.6 nM
other
  melting point: 261.5 °C

## CC(=O)N[C@H]1CC[C@H](CCN2CCN(c3nccc4c3CCO4)CC2)CC1 [Example 32, trans-N-(4-{2-[4-(2,3-Dihydro-furo[3,2-c]pyridin-4-yl)-piperazin-1-yl]-ethyl}-cyclohexyl)-acetamide]
[1]
  Ki: 770 nM
[2]
  Ki: 12.7 nM
[3]; [4]
  Ki: 22.9 nM
other
  melting point: 260 °C
